Measured values from ChEMBL document CHEMBL1143006, “Examination of acylated 4-aminopiperidine-4-carboxylic acid residues in the phosphotyrosyl+1 position of Grb2 SH2 domain-binding tripeptides” (J Med Chem, 2007).

Biological target: Growth factor receptor-bound protein 2 (Homo sapiens, UniProt P62993)
Assay: Binding affinity to Grb2-SH2 domain by surface plasmon resonance

Compound	Kd [µM]
Cc1ccc2c(ccn2CCC(=O)N2CCC(NC(=O)[C@@H](CC(=O)O)Cc3ccc(CP(=O)(O)O)cc3)(C(=O)N[C@@H](CC(N)=O)C(=O)NCCCc3ccc4ccccc4c3)CC2)c1	0.458
COC(=O)N1CCC(NC(=O)[C@@H](CC(=O)O)Cc2ccc(CP(=O)(O)O)cc2)(C(=O)N[C@@H](CC(N)=O)C(=O)NCCCc2ccc3ccccc3c2)CC1	0.106
NC(=O)C[C@H](NC(=O)C1(NC(=O)[C@@H](CC(=O)O)Cc2ccc(CP(=O)(O)O)cc2)CCN(C(=O)OCc2ccc(C(=O)O)cc2)CC1)C(=O)NCCCc1ccc2ccccc2c1	0.871
COCCOC(=O)N1CCC(NC(=O)[C@@H](CC(=O)O)Cc2ccc(CP(=O)(O)O)cc2)(C(=O)N[C@@H](CC(N)=O)C(=O)NCCCc2ccc3ccccc3c2)CC1	0.202

Now from value to compound:

Kd [µM]	Compound
0.027	NC(=O)C[C@H](NC(=O)C1(NC(=O)[C@@H](CC(=O)O)Cc2ccc(CP(=O)(O)O)cc2)CCN(C(=O)CCCc2ccccc2)CC1)C(=O)NCCCc1ccc2ccccc2c1
0.036	NC(=O)C[C@H](NC(=O)C1(NC(=O)[C@@H](CC(=O)O)Cc2ccc(CP(=O)(O)O)cc2)CCN(C(=O)OCCc2ccccc2)CC1)C(=O)NCCCc1ccc2ccccc2c1
0.272	NC(=O)C[C@H](NC(=O)C1(NC(=O)[C@@H](CC(=O)O)Cc2ccc(CP(=O)(O)O)cc2)CCN(C(=O)NCCc2ccccc2)CC1)C(=O)NCCCc1ccc2ccccc2c1
2.14	NC(=O)C[C@H](NC(=O)C1(NC(=O)[C@@H](CC(=O)O)Cc2ccc(CP(=O)(O)O)cc2)CCN(S(=O)(=O)CCc2ccccc2)CC1)C(=O)NCCCc1ccc2ccccc2c1
2.18	NC(=O)C[C@H](NC(=O)C1(NC(=O)[C@@H](CC(=O)O)Cc2ccc(CP(=O)(O)O)cc2)CCN(C(=O)CCCCc2ccccc2)CC1)C(=O)NCCCc1ccc2ccccc2c1
0.32	NC(=O)C[C@H](NC(=O)C1(NC(=O)[C@@H](CC(=O)O)Cc2ccc(CP(=O)(O)O)cc2)CCN(C(=O)OCc2ccccc2)CC1)C(=O)NCCCc1ccc2ccccc2c1
